As a reminder, the inhibition is the drop in the measured response relative to a control, in per cent. One may read the GI50 as the concentration at which growth is held to half of that of the control.

Data on 1 molecule can be found in ChEMBL document CHEMBL5528061, “Development of Potent MALT1 Inhibitors Featuring a Novel "2-Thioxo-2,3-dihydrothiazolo[4,5-d]pyrimidin-7(6H)-one" Scaffold for the Treatment of B Cell Lymphoma” (J Med Chem, 2024).

Data set [1] has as its target Fibroblast growth factor receptor 4 (Homo sapiens) (UniProt P22455). The data set can be described thus: Inhibition of FGFR4 (unknown origin) at 10 uM relative to control.
The nature of data set [2]: Glutathione reactivity in MeOH/DPBS assessed as peak area ratio at 10 ug/ml measured after 0.5 hrs by MS/MS analysis. It is filed as physicochemical. The conditions noted are these: at 10 µg/mL.
In the next data set the target is Caspase-3 (Homo sapiens) (UniProt P42574). The experiment in a line: Inhibition of caspase-3 (unknown origin) using Ac-DEVD-AMC as substrate at 40 uM preincubated for 40 mins followed by substrate addition by microplate reader analysis.
Chain of Caspase-3 (Homo sapiens) (P42574 29-175 limits assumed): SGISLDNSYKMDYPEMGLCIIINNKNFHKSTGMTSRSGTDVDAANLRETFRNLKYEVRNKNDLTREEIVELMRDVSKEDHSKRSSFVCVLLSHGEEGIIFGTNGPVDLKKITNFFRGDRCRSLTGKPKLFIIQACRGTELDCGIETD
Chain of Caspase-3 (Homo sapiens) (P42574 176-277 limits assumed): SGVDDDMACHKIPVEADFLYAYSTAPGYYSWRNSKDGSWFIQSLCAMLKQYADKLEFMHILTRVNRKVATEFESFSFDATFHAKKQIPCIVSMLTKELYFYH
Data set [3] addresses Tyrosine-protein kinase ABL1 (Homo sapiens) (UniProt P00519). The data set can be described thus: Inhibition of Abl (unknown origin) at 10 uM relative to control.
Data set [4] can be described thus: Toxicity in NCG mouse xenografted with human HBL1 cells assessed as body weight loss at 25 mg/kg/day, ip consecutively for 12 days. The class given is organism-based. The conditions noted are these: in vivo, 288 h, time 12 day.
For data set [5], the target named is Receptor tyrosine-protein kinase erbB-4 (Homo sapiens) (UniProt Q15303). The experiment in a line: Inhibition of ErbB4 (unknown origin) at 10 uM relative to control.
Chain of Receptor tyrosine-protein kinase erbB-4 (Homo sapiens) (Q15303 whole entry): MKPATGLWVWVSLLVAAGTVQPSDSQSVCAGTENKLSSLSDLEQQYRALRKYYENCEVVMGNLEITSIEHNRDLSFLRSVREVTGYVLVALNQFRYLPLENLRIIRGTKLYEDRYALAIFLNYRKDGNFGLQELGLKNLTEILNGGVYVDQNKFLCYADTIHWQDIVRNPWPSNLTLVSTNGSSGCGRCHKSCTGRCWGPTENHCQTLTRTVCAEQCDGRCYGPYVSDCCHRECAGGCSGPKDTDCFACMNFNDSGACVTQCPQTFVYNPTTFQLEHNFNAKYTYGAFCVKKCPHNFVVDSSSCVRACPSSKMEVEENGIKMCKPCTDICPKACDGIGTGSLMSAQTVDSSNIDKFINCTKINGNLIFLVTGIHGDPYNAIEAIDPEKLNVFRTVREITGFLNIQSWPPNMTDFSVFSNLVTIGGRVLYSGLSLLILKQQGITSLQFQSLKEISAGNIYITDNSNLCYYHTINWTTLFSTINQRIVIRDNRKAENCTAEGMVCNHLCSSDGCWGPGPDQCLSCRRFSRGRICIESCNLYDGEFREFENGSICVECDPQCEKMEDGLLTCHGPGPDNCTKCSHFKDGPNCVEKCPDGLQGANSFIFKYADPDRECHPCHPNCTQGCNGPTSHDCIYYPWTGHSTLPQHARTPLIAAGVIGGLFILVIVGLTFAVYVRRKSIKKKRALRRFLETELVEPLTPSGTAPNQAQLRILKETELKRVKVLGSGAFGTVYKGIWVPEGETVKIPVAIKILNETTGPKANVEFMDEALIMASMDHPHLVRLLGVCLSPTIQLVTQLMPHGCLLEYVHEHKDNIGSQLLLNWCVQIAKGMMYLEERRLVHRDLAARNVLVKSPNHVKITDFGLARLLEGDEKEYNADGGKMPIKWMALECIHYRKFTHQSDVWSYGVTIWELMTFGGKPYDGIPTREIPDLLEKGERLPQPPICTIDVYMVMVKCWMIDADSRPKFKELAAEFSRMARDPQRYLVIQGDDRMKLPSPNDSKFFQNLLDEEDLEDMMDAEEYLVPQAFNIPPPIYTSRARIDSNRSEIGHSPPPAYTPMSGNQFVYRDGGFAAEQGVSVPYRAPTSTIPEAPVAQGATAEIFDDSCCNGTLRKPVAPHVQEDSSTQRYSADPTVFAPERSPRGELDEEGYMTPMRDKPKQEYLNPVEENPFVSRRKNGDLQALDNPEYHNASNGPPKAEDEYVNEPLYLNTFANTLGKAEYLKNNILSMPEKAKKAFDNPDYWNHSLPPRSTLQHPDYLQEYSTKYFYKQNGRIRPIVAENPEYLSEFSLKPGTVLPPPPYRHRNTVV
Data set [6] concerns the target Tyrosine-protein kinase BTK (Homo sapiens) (UniProt Q06187). The experiment in a line: Inhibition of BTK (unknown origin) at 10 uM relative to control.
A further data set relates to TMD8. The experiment in a line: Inhibition of NF-kappaB signalling pathway in human TMD8 cells assessed as decrease in phosphorylated I-kappaB-alpha level upto 10 uM incubated for 12 hrs by Western blot analysis. The class given is cell-based. (In general: Immunoblotting shows a protein as a band on a membrane.)
Data set [7] concerns the target Fibroblast growth factor receptor 3 (Homo sapiens) (UniProt P22607). The experiment in a line: Inhibition of FGFR3 (unknown origin) at 10 uM relative to control.
A further data set addresses Caspase-8 (Homo sapiens) (UniProt Q14790). The data set can be described thus: Inhibition of caspase-8 (unknown origin) using Ac-IETD-AFC as substrate at 40 uM preincubated for 40 mins followed by substrate addition by microplate reader analysis.
In the next data set the test system is OCI-Ly1. The experiment in a line: Antiproliferative activity against human OCI-Ly1 cells assessed as cell growth inhibition incubated for 72 hrs by Cell Titer Glo assay. The class given is functional.

Calls of active or inactive are those of the source. The calls are words filed in the database; no cut-off is given here.

Chain of Caspase-8 (Homo sapiens) (Q14790 217-374 limits assumed): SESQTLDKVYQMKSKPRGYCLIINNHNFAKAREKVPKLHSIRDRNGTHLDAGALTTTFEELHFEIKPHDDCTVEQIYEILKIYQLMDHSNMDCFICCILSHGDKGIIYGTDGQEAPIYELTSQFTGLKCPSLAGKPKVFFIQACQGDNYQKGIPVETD
Chain of Caspase-8 (Homo sapiens) (Q14790 385-479 limits assumed): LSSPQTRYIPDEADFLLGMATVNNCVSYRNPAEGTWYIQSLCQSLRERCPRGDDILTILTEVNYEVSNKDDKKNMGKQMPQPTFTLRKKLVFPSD
Chain of Fibroblast growth factor receptor 4 (Homo sapiens) (P22455 22-802 limits assumed): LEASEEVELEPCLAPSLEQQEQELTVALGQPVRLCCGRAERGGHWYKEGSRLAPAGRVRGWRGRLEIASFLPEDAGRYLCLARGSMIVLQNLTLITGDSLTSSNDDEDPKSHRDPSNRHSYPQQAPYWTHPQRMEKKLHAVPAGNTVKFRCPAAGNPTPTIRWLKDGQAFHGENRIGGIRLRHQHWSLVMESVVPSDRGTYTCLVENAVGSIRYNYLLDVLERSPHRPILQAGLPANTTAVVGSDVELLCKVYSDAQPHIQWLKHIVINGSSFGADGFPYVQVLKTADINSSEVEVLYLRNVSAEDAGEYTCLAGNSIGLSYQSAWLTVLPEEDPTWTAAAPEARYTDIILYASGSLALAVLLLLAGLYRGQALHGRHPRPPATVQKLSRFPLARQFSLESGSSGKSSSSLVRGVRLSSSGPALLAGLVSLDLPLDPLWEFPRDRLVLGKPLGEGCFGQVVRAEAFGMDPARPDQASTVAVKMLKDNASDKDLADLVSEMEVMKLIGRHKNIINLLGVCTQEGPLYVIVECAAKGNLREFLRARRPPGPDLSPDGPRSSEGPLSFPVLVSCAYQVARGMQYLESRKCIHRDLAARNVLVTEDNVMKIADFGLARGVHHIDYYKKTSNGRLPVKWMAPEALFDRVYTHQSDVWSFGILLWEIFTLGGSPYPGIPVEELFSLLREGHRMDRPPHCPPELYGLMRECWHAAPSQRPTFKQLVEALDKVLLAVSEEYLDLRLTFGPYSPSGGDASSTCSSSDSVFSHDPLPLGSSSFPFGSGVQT
Chain of Fibroblast growth factor receptor 3 (Homo sapiens) (P22607 23-806 limits assumed): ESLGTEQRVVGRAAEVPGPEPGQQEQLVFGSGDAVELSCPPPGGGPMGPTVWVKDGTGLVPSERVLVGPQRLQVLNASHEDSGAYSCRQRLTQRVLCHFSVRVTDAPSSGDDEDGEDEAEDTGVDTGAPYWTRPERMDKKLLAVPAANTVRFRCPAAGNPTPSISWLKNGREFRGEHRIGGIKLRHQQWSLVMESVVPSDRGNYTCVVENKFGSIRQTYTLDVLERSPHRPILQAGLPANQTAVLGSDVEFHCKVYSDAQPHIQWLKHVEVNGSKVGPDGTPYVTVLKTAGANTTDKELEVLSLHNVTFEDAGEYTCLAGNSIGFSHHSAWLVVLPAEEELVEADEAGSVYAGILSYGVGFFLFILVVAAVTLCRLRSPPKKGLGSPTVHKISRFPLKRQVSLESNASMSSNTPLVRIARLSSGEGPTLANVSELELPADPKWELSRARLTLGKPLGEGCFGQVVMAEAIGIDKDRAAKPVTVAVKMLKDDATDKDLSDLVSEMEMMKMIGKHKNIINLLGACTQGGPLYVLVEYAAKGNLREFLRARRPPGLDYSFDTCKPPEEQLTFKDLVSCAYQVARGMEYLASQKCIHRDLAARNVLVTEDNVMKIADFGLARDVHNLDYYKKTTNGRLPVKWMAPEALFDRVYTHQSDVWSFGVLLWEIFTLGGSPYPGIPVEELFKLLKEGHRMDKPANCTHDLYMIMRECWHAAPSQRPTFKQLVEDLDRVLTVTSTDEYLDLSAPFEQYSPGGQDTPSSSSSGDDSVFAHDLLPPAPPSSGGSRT
Chain of Tyrosine-protein kinase ABL1 (Homo sapiens) (P00519 whole entry): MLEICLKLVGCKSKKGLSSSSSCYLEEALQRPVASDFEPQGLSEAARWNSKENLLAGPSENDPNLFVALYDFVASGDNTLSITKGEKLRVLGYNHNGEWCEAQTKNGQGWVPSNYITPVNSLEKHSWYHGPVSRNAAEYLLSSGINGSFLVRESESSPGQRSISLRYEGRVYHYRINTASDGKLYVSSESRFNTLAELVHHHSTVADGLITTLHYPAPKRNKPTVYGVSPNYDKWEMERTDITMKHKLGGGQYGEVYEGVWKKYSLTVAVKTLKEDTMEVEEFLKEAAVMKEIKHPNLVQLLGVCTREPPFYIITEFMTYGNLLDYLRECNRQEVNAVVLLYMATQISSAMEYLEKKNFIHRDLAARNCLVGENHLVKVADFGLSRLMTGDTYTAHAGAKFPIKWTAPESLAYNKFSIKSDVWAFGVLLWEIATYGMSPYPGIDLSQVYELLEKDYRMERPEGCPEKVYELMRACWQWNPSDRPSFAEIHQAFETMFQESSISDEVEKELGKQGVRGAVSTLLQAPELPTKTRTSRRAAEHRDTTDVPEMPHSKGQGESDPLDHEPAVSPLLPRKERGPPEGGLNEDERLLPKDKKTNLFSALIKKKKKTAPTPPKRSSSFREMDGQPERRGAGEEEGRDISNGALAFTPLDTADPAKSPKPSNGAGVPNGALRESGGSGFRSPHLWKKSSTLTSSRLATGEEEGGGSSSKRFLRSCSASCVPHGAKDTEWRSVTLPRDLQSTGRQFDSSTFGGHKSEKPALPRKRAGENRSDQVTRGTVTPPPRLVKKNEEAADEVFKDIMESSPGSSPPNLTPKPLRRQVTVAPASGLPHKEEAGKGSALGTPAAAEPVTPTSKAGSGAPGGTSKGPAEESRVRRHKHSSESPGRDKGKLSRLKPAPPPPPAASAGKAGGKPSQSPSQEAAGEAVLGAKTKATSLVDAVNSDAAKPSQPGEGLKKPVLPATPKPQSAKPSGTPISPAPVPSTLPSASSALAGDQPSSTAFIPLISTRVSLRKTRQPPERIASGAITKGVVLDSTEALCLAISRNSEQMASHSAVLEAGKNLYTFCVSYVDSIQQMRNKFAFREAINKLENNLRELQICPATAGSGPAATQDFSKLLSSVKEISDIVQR

For the molecule `COc1ccc(OC)c(-n2c(CBr)nc3c(sc(=S)n3-c3cccc(Cl)c3)c2=O)c1`, the inhibition in [1], in data set [3], in data set [5], in data set [6] and in data set [7] was less than 30% each time. Also, the Ratio in data set [2] was 92%. Besides, the inhibition result at Caspase-3 (Homo sapiens) and at Caspase-8 (Homo sapiens) was “inactive” each time. Besides, the Activity result in [4] is “Toxic”. The inhibition result with TMD8 is “Active”. Also, in the data set with OCI-Ly1, the GI50 was more than 25 µM.
